Measurements from article PMC7697893, “Novel 1-Amidino-4-Phenylpiperazines as Potent Agonists at Human TAAR1 Receptor: Rational Design, Synthesis, Biological Evaluation and Molecular Docking Studies” (Pharmaceuticals, 2020).
Structures can show the parent of a compound that is named as a salt. Where two headings read alike, the source gives them in different places.

Assays:
hTAAR1 [1] = target: T1, hTAAR1 (Homo sapiens, UniProt Q96RJ0)
T1 construct: expressed in transfected cells; host or cells: HEK-293T (ATCC)
T1 sequence (Q96RJ0 1-339): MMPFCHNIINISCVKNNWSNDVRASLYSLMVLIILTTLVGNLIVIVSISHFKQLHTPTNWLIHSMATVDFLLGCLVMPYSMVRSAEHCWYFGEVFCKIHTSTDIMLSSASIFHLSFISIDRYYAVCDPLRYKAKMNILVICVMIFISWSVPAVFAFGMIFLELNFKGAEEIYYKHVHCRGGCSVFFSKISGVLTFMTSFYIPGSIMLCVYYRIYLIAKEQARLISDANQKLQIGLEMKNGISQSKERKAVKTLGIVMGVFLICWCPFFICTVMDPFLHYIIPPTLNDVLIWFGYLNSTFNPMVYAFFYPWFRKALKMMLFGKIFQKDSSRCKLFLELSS

mTAAR1 = system: mTAAR1; parameters: method as in PMID 27823885, PMID 29407948; settings: Figure 2, biguanides SET1 and SET2; cited from earlier work
hTAAR1 [2] = target: T1, hTAAR1; experiment: Functional activity at hTAAR1, cAMP BRET biosensor in HEK-293T cells; type: cell-based; settings: for Emax at 10 µM: HEK-293T, read-out: hTAAR1 Activity
Method: The activity of the compounds was measured using human embryonic kidney 293 (HEK-293T) cells co-transfected with plasmids encoding hTAAR1 and a cAMP Bioluminescence Resonance Energy Transfer (BRET) biosensor, or empty vector as a control. TYR was used as a positive control for agonism. Firstly, all the compounds were tested at 10 μM either for agonistic or antagonistic activity.
BRET screening was described in detail elsewhere. HEK-293T (ATCC) cells were transiently сo-transfected with plasmids encoding hTAAR1 and a cAMP BRET biosensor using Lipofectamine® (ThermoFisher) reagent, and then plated in 96-well plates (Corning) at […] per well. On the following day, culture medium was removed and 70 μL of phosphate-buffered saline containing calcium and magnesium was added to each well, followed by the addition of 10 μL […] 3-isobutyl-1-methylxanthine solution (Sigma), and 10 μL 50 μM coelenterazine-h solution (Promega). All tested compounds were dissolved in DMSO to yield 10 mM stock solutions. After 10 min incubation, either 10 μL of vehicle or 10× of the concentrated solution of compound to be tested (10 μM final concentration) was added. Readings were collected using a Mithras LB943 multimodal plate reader (Berthold Technologies). The BRET signal is determined by calculating the ratio of the light emitted at 505 to 555 nm to the light emitted at 465 to 505 nm.
Curves were fitted by applying non-linear regression models on GraphPad Prism 6 (GraphPad Software).

[3] = parameters: method as in PMID 5719030; settings: potentiating pressor effect of tyramine and NE; cited from earlier work
[4] = parameters: method as in PMID 5169226; settings: rats, intraperitoneal, 100 mg/kg; cited from earlier work
[5] = Cell cytotoxicity assay (MTT) on Vero-76 cells; type: cell-based, Cercopithecus Aethiops; settings: Cercopithecus aethiops (African green monkey), Vero-76 cells; MTT method, 48–96 h; CC50±SEM
Method: (§1) Vero-76 cells (ATCC CRL 1587 Cercopithecus Aethiops) were seeded at an initial density of 4 × 10^5 cells/mL in 24-well plates, in culture medium (Dulbecco’s Modified Eagle Medium (D-MEM) with L-glutamine, supplemented with fetal bovine serum (FBS), 0.025 g/L kanamycin). Cell cultures were then incubated at 37 °C in a humidified, 5% CO2 atmosphere in the absence or presence of serial dilutions of test compounds. Cell viability was determined after 48–96 h at 37 °C by the MTT staining method. The results are expressed as CC50, which is the concentration of compound necessary to inhibit cell growth by 50%. Each CC50 value is the mean and standard deviation of at least three separate experiments performed in duplicate.

Vero-76 cells = experiment: Cell cytotoxicity assay (MTT) on Vero-76 cells; type: cell-based, Cercopithecus Aethiops; settings: ratio of Vero-76 CC50 to hTAAR1 EC50
Method: as §1

human hepatocyte = settings: cited from earlier work
[6] = cited from earlier work
[7] = Figure 2, biguanides SET1 and SET2; cited from earlier work
[8] = Figure 2, biguanides SET1 and SET2; read-out: hTAAR1 EC50; cited from earlier work
[9] = dose–response 10 nM to 10 μM, means of 4 experiments, errors within 10%, read-out: hTAAR1 EC50
[10] = hTAAR1, amidines of this paper, from EC50, read-out: pEC50 (converted)
[11] = as compared with 1 µM TYR (full agonism), compounds tested at 10 μM

N=C(N)N1CCN(c2cccc(C(F)(F)F)c2)CC1 (as salt: hydrochloride) [Compound 9, 4-[(3-Trifluoromethyl)phenyl]piperazine-1-carboximidamide hydrochloride]
melting point: 170 to 173 °C

CCc1[nH]nc(C(=O)Nc2ccc([C@H]3CNCCO3)cc2)c1C [(4-Aminophenyl)morpholino derivative]
hTAAR1 efficacy (hTAAR1 [1]; partial agonist; cited from earlier work): 42%

NC(N)=NC(N)=Nc1ccccc1Cl [BIG2]
EC50 (mTAAR1): 0.41 µM

NC(N)=NC(N)=Nc1ccc(Cl)cc1 [BIG4]
hTAAR1 EC50 (hTAAR1 [1]; [7]): inactive
EC50 (hTAAR1 [1]; read-out: hTAAR1 EC50; Figure 2, biguanides SET1 and SET2; cited from earlier work): > 10 µM
EC50 (mTAAR1): 2.1 µM

Cc1ccc(NC(=N)N=C(N)N)cc1 [BIG8]
hTAAR1 EC50 (hTAAR1 [1]; [7]): inactive
EC50 (hTAAR1 [1]; [8]): > 10 µM
EC50 (mTAAR1): 1.7 µM

COc1ccc(N=C(N)N=C(N)N)cc1 [BIG9]
hTAAR1 EC50 (hTAAR1 [1]; [7]): inactive
mTAAR1 EC50 (mTAAR1): inactive

N=C(N)NC(=N)NCc1ccccc1 [BIG10, 1-benzylbiguanide]
EC50 (hTAAR1 [1]; [8]): > 10 µM
EC50 (mTAAR1): 0.78 µM

NC(N)=NC(N)=NCc1cccc(Cl)c1 [BIG12]
EC50 (mTAAR1): 0.097 µM

NC(N)=NC(N)=NCc1ccc(Cl)c(Cl)c1 [BIG14]
EC50 (mTAAR1): 0.036 µM

COc1ccc(CN=C(N)N=C(N)N)cc1 [BIG17]
hTAAR1 EC50 (hTAAR1 [1]; [7]): inactive
mTAAR1 EC50 (mTAAR1): inactive

Cl.N=C(N)N1CCN(c2ccccc2)CC1 [Compound 1, 4-Phenylpiperazine-1-carboximidamide hydrochloride]
melting point: 214 to 217 °C
Emax at 10 µM (hTAAR1 [2]): 71%
EC50 (hTAAR1 [2]; [9]): 0.37 µM
sympathomimetic effect [3]: a rise in the blood pressure
increase of the concentration of NE in the brain [4]: about 34.5%
increase of the concentration of NE in the heart [4]: ~42.7%
CC50 [5]: 84 ± 5 µM
Therapeutic index (CC50/EC50) (Vero-76 cells): 227

N=C(N)N=C(N)N1CCN(c2ccccc2)CC1 [Compound 1a, 1-phenyl-4-biguanylpiperazine]
EC50 (mTAAR1): 2.38 µM

Cc1ccccc1N1CCN(C(=N)N)CC1.Cl [Compound 2, 4-(o-Tolyl)piperazine-1-carboximidamide hydrochloride]
melting point: 159 to 162 °C
Emax at 10 µM (hTAAR1 [2]): 100%
EC50 (hTAAR1 [2]; [10]): 0.0302 µM
CC50 [5]: 80 ± 5 µM
Therapeutic index (CC50/EC50) (Vero-76 cells): 2667

Cl.N=C(N)N1CCN(c2ccccc2Cl)CC1 [Compound 3, 4-(2-Chlorophenyl)piperazine-1-carboximidamide hydrochloride]
Emax at 10 µM (hTAAR1 [2]): 90%
EC50 (hTAAR1 [2]; [9]): 0.16 µM
CC50 [5]: > 100 µM
Therapeutic index (CC50/EC50) (Vero-76 cells): 625

N=C(N)N=C(N)N1CCN(c2ccccc2Cl)CC1 [Compound 3a]
EC50 (mTAAR1): 2.66 µM

Cl.N=C(N)N1CCN(c2cccc(Cl)c2)CC1 [Compound 4, 4-(3-Chlorophenyl)piperazine-1-carboximidamide hydrochloride]
Emax at 10 µM (hTAAR1 [2]): 35%
EC50 (hTAAR1 [2]; [9]): > 2 µM
sympathomimetic effect [3]: a rise in the blood pressure
CC50 [5]: 90 ± 3 µM
Therapeutic index (CC50/EC50) (Vero-76 cells): 45

Cl.N=C(N)N1CCN(c2ccc(Cl)cc2)CC1 [Compound 5, 4-(4-Chlorophenyl)piperazine-1-carboximidamide hydrochloride]
hTAAR1 Activity (hTAAR1 [2]; [11]): inactive
sympathomimetic effect [3]: a rise in the blood pressure
CC50 [5]: 95 ± 3 µM

COc1ccccc1N1CCN(C(=N)N)CC1.Cl [Compound 6, 4-(2-Methoxyphenyl)piperazine-1-carboximidamide hydrochloride]
Emax at 10 µM (hTAAR1 [2]): 64%
EC50 (hTAAR1 [2]; [9]): 0.093 µM
CC50 [5]: 83 ± 5 µM
Therapeutic index (CC50/EC50) (Vero-76 cells): 892

COc1cccc(N2CCN(C(=N)N)CC2)c1.Cl [Compound 7, 4-(3-Methoxyphenyl)piperazine-1-carboximidamide hydrochloride]
Emax at 10 µM (hTAAR1 [2]): 32%
EC50 (hTAAR1 [2]; [9]): 0.244 µM
CC50 [5]: 87 ± 4 µM
Therapeutic index (CC50/EC50) (Vero-76 cells): 357

COc1ccc(N2CCN(C(=N)N)CC2)cc1.Cl [Compound 8, 4-(4-Methoxyphenyl)piperazine-1-carboximidamide hydrochloride]
hTAAR1 Activity (hTAAR1 [2]; [11]): inactive
CC50 [5]: 88 ± 2 µM

COc1ccc(N2CCN(C(N)=NC(=N)N)CC2)cc1 [Compound 8a]
mTAAR1 EC50 (mTAAR1): inactive

N=C(N)N1CCN(c2cccc(C(F)(F)F)c2)CC1 [Compound 9, 4-[(3-Trifluoromethyl)phenyl]piperazine-1-carboximidamide hydrochloride]
Emax at 10 µM (hTAAR1 [2]; [11]): 80%
EC50 (hTAAR1 [2]; [9]): 0.064 µM
CC50 [5]: > 100 µM
Therapeutic index (CC50/EC50) (Vero-76 cells): 1562

Cl.N=C(N)N1CCN(c2ccccn2)CC1 [Compound 10, 4-(Pyridin-2-yl)Piperazine-1-Carboximidamide Hydrochloride]
melting point: 205 to 208 °C
Emax at 10 µM (hTAAR1 [2]): 30%
EC50 (hTAAR1 [2]; [9]): > 2 µM
CC50 [5]: 74 ± 5 µM
Therapeutic index (CC50/EC50) (Vero-76 cells): 37

N=C(N)N=C(N)N1CCN(c2ncccn2)CC1 [Compound 10a]
hTAAR1 EC50 (hTAAR1 [1]; [7]): inactive
EC50 (mTAAR1): 9 µM

Cl.N=C(N)N1CCN(c2ncccn2)CC1 [Compound 11, 4-(Pyrimidin-2-yl)piperazine-1-carboximidamide hydrochloride]
hTAAR1 Activity (hTAAR1 [2]; [11]): inactive
CC50 [5]: 64 ± 2 µM

Cl.N#Cc1ccccc1N1CCN(C(=N)N)CC1 [Compound 12, 4-(2-Cyanophenyl)piperazine-1-carboximidamide hydrochloride]
melting point: 236 to 238 °C
hTAAR1 Activity (hTAAR1 [2]; [11]): inactive
CC50 [5]: 78 ± 2 µM

Cl.N=C(N)N1CCN(c2ccccc2F)CC1 [Compound 13, 4-(2-Fluorophenyl)piperazine-1-carboximidamide hydrochloride]
melting point: 145 to 148 °C
hTAAR1 Activity (hTAAR1 [2]; [11]): inactive
CC50 [5]: 87 ± 5 µM

Cl.N=C(N)N1CCN(c2ccc(F)cc2)CC1 [Compound 14, 4-(4-Fluorophenyl)piperazine-1-carboximidamide hydrochloride]
hTAAR1 Activity (hTAAR1 [2]; [11]): inactive
CC50 [5]: 94 ± 6 µM

Cl.N=C(N)N1CCN(c2cccc(Cl)c2Cl)CC1 [Compound 15, 4-(2,3-Dichlorophenyl)piperazine-1-carboximidamide hydrochloride]
Emax at 10 µM (hTAAR1 [2]): 81%
EC50 (hTAAR1 [2]; [10]): 0.02 µM
CC50 [5]: 82 ± 5 µM
Therapeutic index (CC50/EC50) (Vero-76 cells): 4100

Cl.N=C(N)N1CCN(c2ccc(Cl)c(Cl)c2)CC1 [Compound 16, 4-(3,4-Dichlorophenyl)piperazine-1-carboximidamide hydrochloride]
melting point: 235 to 237 °C
Emax at 10 µM (hTAAR1 [2]): 49%
EC50 (hTAAR1 [2]; [9]): 0.071 µM
CC50 [5]: 89 ± 4 µM
Therapeutic index (CC50/EC50) (Vero-76 cells): 1254

NC1=N[C@H](c2ccc(Br)cc2)CO1 [Compound 27b]
pEC50 (hTAAR1 [1]; 2-aminooxazolines reported by Roche, Table S1; cited from earlier work): 5.00 M

Cc1c(F)cccc1[C@H]1COC(N)=N1 [RO5263397]
human hepatocyte clearance (human hepatocyte): acceptable
AMES/MNT test [6]: negative

NCCc1ccc(O)cc1 [TYR, tyramine, reference compound]
hTAAR1 Activity (hTAAR1 [2]; [11]): 100%
EC50 (hTAAR1 [2]; [9]): 0.066 µM

NCCc1ccccc1 [β-PEA, β-phenylethylamine]
pEC50 (hTAAR1 [1]; hTAAR1; endogenous agonist, no reference given; cited from earlier work): 6.70 M
